Results on 21 compounds are retold here after patent US9133104B2 (Chroma Therapeutics Ltd., priority 2005, dated 2015).

In assay [1] the target is T1, histone deacetylase activity (HeLa nuclear extract).
T1 construct: Histone deacetylase activity from crude nuclear extract derived from HeLa cells was used for screening
Nature of the assay: HDAC fluorescent activity assay (Biomol Fluor de Lys), HeLa nuclear extract. In kind it is biochemical. Conditions: Fluor de Lys substrate, IC50 range. Put shortly:
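Crude HeLa nuclear extract (20 mM Hepes, 100 mM KCl, 0.2 mM EDTA, 0.5 mM DTT, 0.2 mM PMSF, 20% glycerol) incubated with acetyl-lysine Fluor de Lys substrate ± inhibitor; developer generates fluorophore. Background-subtracted % of vehicle control; IC50 from eight-point variable-slope sigmoidal fit.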

The subject of another assay is Hela cancer cell line. Nature of the assay: Cell inhibition assay (SRB cell viability), Hela. In kind it is cell-based. Conditions: 72 h, Hela cells, IC50 range. On the procedure: (§1) The corresponding cancer cell lines (Hela, U937 and HUT) growing in log phase were harvested and seeded at 1000 cells/well (200 ul final volume) into 96-well tissue culture plates. Following 24 h of cell growth cells were treated with compounds (final concentration of 20 uM). Plates were then re-incubated for a further 72 h before a sulphorhodamine B (SRB) cell viability assay was conducted according to Skehan 1990 J Natl Canc Inst 82, 1107-1112.
(§2) Data were expressed as a percentage inhibition of the control, measured in the absence of inhibitor, as follows:— % inhibition=100−((S^i/S^o)×100) where S^i is the signal in the presence of inhibitor and S^o is the signal in the presence of DMSO. IC50 values were determined by non-linear regression analysis, after fitting the results of eight data points to the equation for sigmoidal dose response with variable slope (% activity against log concentration of compound), using Graphpad Prism software. […] NT=Not tested

The subject of a further assay is U937 cancer cell line. In words: Cell inhibition assay (SRB cell viability), U937. In kind it is cell-based. Conditions: 72 h, IC50 range. Here is the method: as §1, §2
For a further assay, the system named is HUT cancer cell line. Nature of the assay: Cell inhibition assay (SRB cell viability), HUT. In kind it is cell-based. Conditions: HUT cells, 72 h, IC50 range. On the procedure: as §1, §2
[2] abbreviates: Homo sapiens, U-937, U937 cells.

Each structure is given as a SMILES string.

In general, IC50 refers to the concentration that gives 50% inhibition. A higher IC50 goes with weaker potency. For the compound `COc1ccc2[nH]c3c(c2c1)CCN(C(=O)CCCCCCC(=O)NO)C3C(=O)N[C@H](C(=O)O)c1ccccc1` (stereo partly drawn) [Compound 12, (S)-{[2-(7-Hydroxycarbamoyl-heptanoyl)-6-methoxy-2,3,4,9-tetrahydro-1H-beta-carboline-1-carbonyl]-amino}-phenyl-acetic acid], the IC50 is 101 to 1000 nM in assay [1]; > 3300 nM with Hela cancer cell line (Homo sapiens, HeLa); > 3300 nM with U937 cancer cell line (setting [2]); > 3300 nM with HUT cancer cell line.
In the case of `COc1ccc2[nH]c3c(c2c1)CCN(C(=O)CCCCCCC(=O)NO)C3C(=O)N[C@H](C(=O)OC1CCCC1)c1ccccc1` (stereo partly drawn) [Compound 13, (S)-{[2-(7-Hydroxycarbamoyl-heptanoyl)-6-methoxy-2,3,4,9-tetrahydro-1H-beta-carboline-1-carbonyl]amino}-phenyl-acetic acid cyclopentyl ester], the IC50 in assay [1] is 101 to 1000 nM; in the assay with Hela cancer cell line, > 3300 nM; in the assay on U937 cancer cell line (U937 cells) it was 330 to 3300 nM; with HUT cancer cell line it was 330 to 3300 nM.
As to `COc1ccc2[nH]c3c(c2c1)CCN(C(=O)CCCCCCC(=O)NO)C3C(=O)N[C@H](C(=O)O)c1ccccc1` (stereo partly drawn) [Compound 14, (S)-{[2-(7-Hydroxycarbamoyl-heptanoyl)-6-methoxy-2,3,4,9-tetrahydro-1H-beta-carboline-1-carbonyl]-amino}-phenyl-acetic acid], the half-maximal inhibitory concentration (IC50) is 101 to 1000 nM in assay [1], > 3300 nM in the assay on Hela cancer cell line, > 3300 nM in the assay on U937 cancer cell line (U937 cells) and > 3300 nM in the assay on HUT cancer cell line.
Regarding `O=C(CCCCCCC(=O)N1CCc2ccc(C(=O)N[C@H](C(=O)OC3CCCC3)c3ccccc3)cc2C1)NO` [Compound 15, (S)-{[2-(7-Hydroxycarbamoyl-heptanoyl)-1,2,3,4-tetrahydro-isoquinoline-7-carbonyl]-amino}-phenyl-acetic acid cyclopentyl ester], the IC50 in assay [1] was > 1000 nM; in the assay on Hela cancer cell line (Homo sapiens, HeLa) it was > 3300 nM; with U937 cancer cell line (setting [2]) it was 330 to 3300 nM; in the assay on HUT cancer cell line it was 330 to 3300 nM.
In the case of `O=C(CCCCCCC(=O)N1CCc2ccc(C(=O)N[C@H](C(=O)O)c3ccccc3)cc2C1)NO` [Compound 16, (S)-{[2-(7-Hydroxycarbamoyl-heptanoyl)-1,2,3,4-tetrahydro-isoquinoline-7-carbonyl]-amino}-phenyl-acetic acid], the IC50 in assay [1] was > 1000 nM; in the assay with Hela cancer cell line (Homo sapiens, HeLa), > 3300 nM; in the assay with U937 cancer cell line (setting [2]) it was > 3300 nM; in the assay on HUT cancer cell line, > 3300 nM.
With `O=C(CCCCCCC(=O)Nc1ccc(C(=O)N[C@H](C(=O)OC2CCCC2)c2ccccc2)cc1)NO` [Compound 17, (S)-[4-(7-Hydroxycarbamoyl-heptanoylamino)-benzoylamino]-phenyl-acetic acid cyclopentyl ester], the concentration for half-maximal inhibition (IC50) in assay [1] was 101 to 1000 nM; with Hela cancer cell line (Homo sapiens, HeLa), > 3300 nM; in the assay with U937 cancer cell line (setting [2]), 330 to 3300 nM; in the assay with HUT cancer cell line, 330 to 3300 nM.
Consider `O=C(CCCCCCC(=O)Nc1ccc(C(=O)N[C@H](C(=O)O)c2ccccc2)cc1)NO` [Compound 18, (S)-[4-(7-Hydroxycarbamoyl-heptanoylamino)-benzoylamino]-phenyl-acetic acid], for which the concentration for half-maximal inhibition (IC50) in assay [1] was 101 to 1000 nM; in the assay with Hela cancer cell line (Homo sapiens, HeLa), > 3300 nM; with U937 cancer cell line (setting [2]), > 3300 nM; with HUT cancer cell line, > 3300 nM.
As for `CC(C)(C)OC(=O)[C@@H](NC(=O)[C@H]1Cc2c([nH]c3ccccc23)CN1C(=O)CCCCCCC(=O)NO)c1ccccc1` [Compound 19, (S)-{[(R)-2-(7-Hydroxycarbamoyl-heptanoyl)-2,3,4,9-tetrahydro-1H-beta-carboline-3-carbonyl]-amino}-phenyl-acetic acid tert-butyl ester], the IC50 in assay [1] lay in the range of 101 to 1000 nM; with Hela cancer cell line (Homo sapiens, HeLa), 330 to 3300 nM; with U937 cancer cell line (setting [2]) it was 330 to 3300 nM; in the assay on HUT cancer cell line, 330 to 3300 nM.
On to `O=C(CCCCCCC(=O)Nc1ccc(CN[C@H](C(=O)OC2CCCC2)c2ccccc2)cc1)NO` [Compound 20, (S)-[4-(7-Hydroxycarbamoyl-heptanoylamino)-benzylamino]-phenyl-acetic acid cyclopentyl ester], for which the IC50 in assay [1] is 101 to 1000 nM; in the assay with Hela cancer cell line (Homo sapiens, HeLa), 330 to 3300 nM; in the assay with U937 cancer cell line (setting [2]), < 330 nM; in the assay on HUT cancer cell line it was 330 to 3300 nM.
Consider `O=C(CCCCCCC(=O)Nc1ccc(CN[C@H](C(=O)O)c2ccccc2)cc1)NO` [Compound 21, (S)-[4-(7-Hydroxycarbamoyl-heptanoylamino)-benzylamino]-phenyl-acetic acid], for which the concentration for half-maximal inhibition (IC50) was 101 to 1000 nM in assay [1]; > 3300 nM in the assay with Hela cancer cell line (Homo sapiens, HeLa); > 3300 nM in the assay on U937 cancer cell line (setting [2]); > 3300 nM in the assay with HUT cancer cell line.
In the case of `O=C(CCCCCCC(=O)Nc1ccc(S(=O)(=O)N[C@H](C(=O)OC2CCCC2)c2ccccc2)cc1)NO` [Compound 22, (S)-[4-(7-Hydroxycarbamoyl-heptanoylamino)-benzenesulfonylamino]-phenyl-acetic acid cyclopentyl ester], the IC50 in assay [1] is 101 to 1000 nM; in the assay on Hela cancer cell line (Homo sapiens, HeLa), 330 to 3300 nM; in the assay on U937 cancer cell line (setting [2]), 330 to 3300 nM; in the assay with HUT cancer cell line, 330 to 3300 nM.
`O=C(CCCCCCC(=O)Nc1ccc(S(=O)(=O)N[C@H](C(=O)O)c2ccccc2)cc1)NO` [Compound 23, (S)-[4-(7-Hydroxycarbamoyl-heptanoylamino)-benzenesulfonylamino]-phenyl-acetic acid]: the IC50 in assay [1] is 101 to 1000 nM; with Hela cancer cell line (Homo sapiens, HeLa), > 3300 nM; in the assay on U937 cancer cell line (setting [2]) it was > 3300 nM; with HUT cancer cell line, > 3300 nM.
As for `O=C(CCCCCCC(=O)N1CCc2c([nH]c3ccc(OCC(=O)N[C@H](C(=O)OC4CCCC4)c4ccccc4)cc23)C1)NO` [Compound 24, (S)-{2-[2-(7-Hydroxycarbamoyl-heptanoyl)-2,3,4,9-tetrahydro-1H-beta-carbolin-6-yloxy]-acetylamino}-phenyl-acetic acid cyclopentyl ester], the half-maximal inhibitory concentration (IC50) in assay [1] was 101 to 1000 nM; in the assay with Hela cancer cell line (Homo sapiens, HeLa), > 3300 nM; with U937 cancer cell line (setting [2]), > 3300 nM; with HUT cancer cell line, 330 to 3300 nM.
With `O=C(CCCCCCC(=O)N1CCc2c([nH]c3ccc(OCC(=O)N[C@H](C(=O)O)c4ccccc4)cc23)C1)NO` [Compound 25], the half-maximal inhibitory concentration (IC50) is 101 to 1000 nM in assay [1]; > 3300 nM in the assay with Hela cancer cell line (Homo sapiens, HeLa); > 3300 nM in the assay on U937 cancer cell line (setting [2]); > 3300 nM in the assay with HUT cancer cell line.
In the case of `CCOC(=O)[C@H](Cc1ccccc1)NCc1cccc(NC(=O)CCCCCCC(=O)NO)c1` [Compound 26, (S)-2-[3-(7-Hydroxycarbamoyl-heptanoylamino)-benzylamino]-3-phenyl-propionic acid ethyl ester], the IC50 in assay [1] is < 100 nM; in the assay on Hela cancer cell line (Homo sapiens, HeLa) it was 330 to 3300 nM; in the assay on U937 cancer cell line (setting [2]), 330 to 3300 nM; with HUT cancer cell line, 330 to 3300 nM.
Regarding `O=C(CCCCCCC(=O)Nc1cccc(CN[C@@H](Cc2ccccc2)C(=O)OC2CCCC2)c1)NO` [Compound 28, (S)-2-[3-(7-Hydroxycarbamoyl-heptanoylamino)-benzylamino]-3-phenyl-propionic acid cyclopentyl ester], the IC50 in assay [1] is 101 to 1000 nM; in the assay with Hela cancer cell line (Homo sapiens, HeLa) it was 330 to 3300 nM; in the assay with U937 cancer cell line (setting [2]) it was 330 to 3300 nM; with HUT cancer cell line, 330 to 3300 nM.
Take `CCOC(=O)[C@H](CCc1ccccc1)NCc1cccc(NC(=O)CCCCCCC(=O)NO)c1` [Compound 29, (S)-2-[3-(7-Hydroxycarbamoyl-heptanoylamino)-benzylamino]-4-phenyl-butyric acid ethyl ester]: the half-maximal inhibitory concentration (IC50) in assay [1] was in the range of 101 to 1000 nM; in the assay on Hela cancer cell line (Homo sapiens, HeLa), 330 to 3300 nM; in the assay on U937 cancer cell line (setting [2]), 330 to 3300 nM; with HUT cancer cell line it was 330 to 3300 nM.
Take `O=C(CCCCCCC(=O)Nc1cccc(CN[C@@H](CCc2ccccc2)C(=O)OC2CCCC2)c1)NO` [Compound 31, (S)-2-[3-(7-Hydroxycarbamoyl-heptanoylamino)-benzylamino]-4-phenyl-butyric acid cyclopentyl ester]: the IC50 in assay [1] is 101 to 1000 nM; in the assay on Hela cancer cell line (Homo sapiens, HeLa), 330 to 3300 nM; in the assay on U937 cancer cell line (setting [2]), < 330 nM; in the assay on HUT cancer cell line it was 330 to 3300 nM.
For `CC(C)(C)OC[C@H](NCc1cccc(NC(=O)CCCCCCC(=O)NO)c1)C(=O)OC1CCCC1` [Compound 34, (S)-3-tert-Butoxy-2-[3-(7-hydroxycarbamoyl-heptanoylamino)-benzylamino]-propionic acid cyclopentyl ester], the IC50 in assay [1] was 101 to 1000 nM; in the assay with Hela cancer cell line (Homo sapiens, HeLa), 330 to 3300 nM; in the assay on U937 cancer cell line (setting [2]) it was < 330 nM; in the assay on HUT cancer cell line it was 330 to 3300 nM.
On to `CC(C)(C)OC(=O)[C@@H](NCc1cccc(NC(=O)CCCCCCC(=O)NO)c1)c1ccccc1` [Compound 35, (S)-[3-(7-Hydroxycarbamoyl-heptanoylamino)-benzylamino]-phenyl-acetic acid tert-butyl ester], for which the IC50 in assay [1] fell in the range of 101 to 1000 nM; in the assay with Hela cancer cell line (Homo sapiens, HeLa), 330 to 3300 nM; with U937 cancer cell line (setting [2]), 330 to 3300 nM; with HUT cancer cell line, 330 to 3300 nM.
`O=C(CCCCCCC(=O)Nc1cccc(CN[C@H](C(=O)OC2CCCC2)c2ccccc2)c1)NO` [Compound 36, (S)-[3-(7-Hydroxycarbamoyl-heptanoylamino)-benzylamino]-phenyl-acetic acid cyclopentyl ester]: the IC50 in assay [1] is < 100 nM; in the assay with Hela cancer cell line (Homo sapiens, HeLa), 330 to 3300 nM; with U937 cancer cell line (setting [2]) it was < 330 nM; in the assay on HUT cancer cell line it was 330 to 3300 nM.
